# Laboratory results as given in ChEMBL document CHEMBL1201862, “PubChem BioAssay data set” (2004).
# Calls of active or inactive are those of the source.
# Experiments:
# [1] = biological target: T1, NAD-dependent protein deacylase sirtuin-5, mitochondrial (Homo sapiens, UniProt Q9NXA8); assay: SIRT5 desuccinylase inhibitors, dose response, biochemical, fluorescence imaging, cherry-pick, set 5 (AID 720591);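 further: desuccinylation of succinyl peptide AMC substrate read as fluorescence after trypsin release; potency of inhibitors that lower fluorescence and may act on trypsin instead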
# [2] = A375 melanoma cell viability loss, dose response, counter-screen for MITF inhibitor project, CellTiter-Glo luminescence, dry powder, set 4 (AID 624364); assay type: functional, cell-based; conditions: A-375;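 further: A375 melanoma cells are MITF independent so this is a counter screen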
# [3] = A375 melanoma cell cytotoxicity, dose response, counter-screen for MITF inhibitor project, CellTiter-Glo luminescence, dry powder, set 2 (AID 624489); assay type: functional, cell-based; conditions: A-375;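 further: actives are compounds lowering A375 viability meaning general cytotoxicity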
# [4] = Late-stage results from the probe development effort to identify antagonists of arginine vasopressin receptor 1a (AVPR1a): fluorescence-based cell-based dose response AVPR1a inhibition assay.; assay type: functional
# [5] = biological target: Vasopressin V1b receptor (Homo sapiens, UniProt P47901); assay: Late-stage results from the probe development effort to identify antagonists of arginine vasopressin receptor 1a (AVPR1a): fluorescence-based cell-based dose response AVPR1b inhibition counterscreen assay.; assay type: functional
# [6] = biological target: Vasopressin V2 receptor (Homo sapiens, UniProt P30518); assay: Late-stage results from the probe development effort to identify antagonists of arginine vasopressin receptor 1a (AVPR1a): fluorescence-based cell-based dose response AVPR2 inhibition counterscreen assay.; assay type: functional
# [7] = Late-stage results from the probe development effort to identify antagonists of arginine vasopressin receptor 1a (AVPR1a): fluorescence-based cell-based dose response OXTR inhibition counterscreen assay.; assay type: functional
# [8] = T. cruzi growth inhibition in host cells, dose response, cell-based, plate reader, dry powder, set 2 (AID 652275); assay type: functional
# [9] = growth inhibition of intracellular T. cruzi, dose response, cell-based, plate reader, dry powder samples (AID 651845); assay type: functional
# [10] = T. cruzi intracellular amastigote growth inhibition, dose response, imaging, CA-I/72 strain, bovine embryo skeletal muscle, dry powder (AID 651885); assay type: functional, cell-based
# [11] = biological target: T2, Hexokinase HKDC1 (Homo sapiens, UniProt Q2TB90); assay: HKDC1 hexokinase activators, dose response, biochemical, W721R variant (AID 504730); assay type: functional
# T2 sequence (Q2TB90 whole entry): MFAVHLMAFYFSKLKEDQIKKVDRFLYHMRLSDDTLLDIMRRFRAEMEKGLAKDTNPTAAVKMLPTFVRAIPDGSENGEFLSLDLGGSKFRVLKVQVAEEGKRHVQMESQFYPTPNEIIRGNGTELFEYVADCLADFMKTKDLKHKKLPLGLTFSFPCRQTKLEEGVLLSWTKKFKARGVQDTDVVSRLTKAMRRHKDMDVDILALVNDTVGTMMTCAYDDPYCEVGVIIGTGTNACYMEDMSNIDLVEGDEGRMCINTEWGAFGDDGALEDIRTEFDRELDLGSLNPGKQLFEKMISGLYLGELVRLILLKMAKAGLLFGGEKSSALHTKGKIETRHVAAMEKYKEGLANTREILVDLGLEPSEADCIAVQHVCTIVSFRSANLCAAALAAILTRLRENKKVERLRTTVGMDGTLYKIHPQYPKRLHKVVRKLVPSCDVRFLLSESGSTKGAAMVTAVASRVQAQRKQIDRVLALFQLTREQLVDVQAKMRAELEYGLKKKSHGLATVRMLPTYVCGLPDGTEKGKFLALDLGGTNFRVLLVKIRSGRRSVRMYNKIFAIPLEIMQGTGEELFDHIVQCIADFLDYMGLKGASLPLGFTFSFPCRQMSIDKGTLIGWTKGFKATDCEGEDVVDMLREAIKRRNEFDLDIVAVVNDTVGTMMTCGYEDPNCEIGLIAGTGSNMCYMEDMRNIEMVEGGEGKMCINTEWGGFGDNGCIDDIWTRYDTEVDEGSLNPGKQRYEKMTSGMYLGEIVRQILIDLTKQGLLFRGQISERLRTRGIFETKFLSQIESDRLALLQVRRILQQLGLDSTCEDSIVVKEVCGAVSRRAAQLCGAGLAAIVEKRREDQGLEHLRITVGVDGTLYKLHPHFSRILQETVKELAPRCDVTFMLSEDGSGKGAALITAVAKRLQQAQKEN
# [12] = biological target: T3, Hexokinase-1 (Homo sapiens, UniProt P19367); assay: hexokinase 1 activators, dose response, selectivity assay for HKDC1 activator project, biochemical (AID 504762); assay type: functional
# T3 sequence (P19367 whole entry): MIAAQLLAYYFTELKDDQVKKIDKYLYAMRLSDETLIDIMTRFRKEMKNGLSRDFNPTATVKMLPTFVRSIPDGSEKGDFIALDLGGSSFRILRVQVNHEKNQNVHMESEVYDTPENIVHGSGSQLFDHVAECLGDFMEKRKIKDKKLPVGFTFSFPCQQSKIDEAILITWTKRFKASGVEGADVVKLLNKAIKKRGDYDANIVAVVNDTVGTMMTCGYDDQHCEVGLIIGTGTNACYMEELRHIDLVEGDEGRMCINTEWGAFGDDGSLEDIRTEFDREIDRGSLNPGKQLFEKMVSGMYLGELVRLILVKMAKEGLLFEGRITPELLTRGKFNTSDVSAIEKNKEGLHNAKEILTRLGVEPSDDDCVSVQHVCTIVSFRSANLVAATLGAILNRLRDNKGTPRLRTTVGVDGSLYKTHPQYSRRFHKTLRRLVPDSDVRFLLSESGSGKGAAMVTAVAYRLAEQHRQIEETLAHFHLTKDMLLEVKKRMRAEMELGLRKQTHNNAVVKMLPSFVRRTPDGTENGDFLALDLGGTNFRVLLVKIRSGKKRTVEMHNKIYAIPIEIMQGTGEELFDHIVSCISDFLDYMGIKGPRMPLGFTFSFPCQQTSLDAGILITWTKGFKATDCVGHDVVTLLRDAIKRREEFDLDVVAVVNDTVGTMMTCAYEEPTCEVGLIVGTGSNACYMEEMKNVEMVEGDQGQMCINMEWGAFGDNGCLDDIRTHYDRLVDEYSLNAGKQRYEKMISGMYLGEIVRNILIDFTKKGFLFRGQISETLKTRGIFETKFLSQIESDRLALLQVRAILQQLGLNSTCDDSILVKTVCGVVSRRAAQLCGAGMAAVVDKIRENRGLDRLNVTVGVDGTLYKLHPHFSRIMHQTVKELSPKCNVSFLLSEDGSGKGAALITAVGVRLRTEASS
# [13] = biological target: Paired box protein Pax-8 (Homo sapiens, UniProt Q06710); assay: inhibitors of PAX8-driven TPO luciferase reporter, dose response, RMG-I cells, cherry-pick (AID 687027); assay type: functional, cell-based;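 further: luciferase reporter driven by Pax8 target thyroperoxidase promoter measured by SteadyGlo luminescence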
# [14] = biological target: T4, Histone-lysine N-methyltransferase NSD2 (Homo sapiens, UniProt O96028); assay type: biochemical
# T4 sequence (O96028 whole entry): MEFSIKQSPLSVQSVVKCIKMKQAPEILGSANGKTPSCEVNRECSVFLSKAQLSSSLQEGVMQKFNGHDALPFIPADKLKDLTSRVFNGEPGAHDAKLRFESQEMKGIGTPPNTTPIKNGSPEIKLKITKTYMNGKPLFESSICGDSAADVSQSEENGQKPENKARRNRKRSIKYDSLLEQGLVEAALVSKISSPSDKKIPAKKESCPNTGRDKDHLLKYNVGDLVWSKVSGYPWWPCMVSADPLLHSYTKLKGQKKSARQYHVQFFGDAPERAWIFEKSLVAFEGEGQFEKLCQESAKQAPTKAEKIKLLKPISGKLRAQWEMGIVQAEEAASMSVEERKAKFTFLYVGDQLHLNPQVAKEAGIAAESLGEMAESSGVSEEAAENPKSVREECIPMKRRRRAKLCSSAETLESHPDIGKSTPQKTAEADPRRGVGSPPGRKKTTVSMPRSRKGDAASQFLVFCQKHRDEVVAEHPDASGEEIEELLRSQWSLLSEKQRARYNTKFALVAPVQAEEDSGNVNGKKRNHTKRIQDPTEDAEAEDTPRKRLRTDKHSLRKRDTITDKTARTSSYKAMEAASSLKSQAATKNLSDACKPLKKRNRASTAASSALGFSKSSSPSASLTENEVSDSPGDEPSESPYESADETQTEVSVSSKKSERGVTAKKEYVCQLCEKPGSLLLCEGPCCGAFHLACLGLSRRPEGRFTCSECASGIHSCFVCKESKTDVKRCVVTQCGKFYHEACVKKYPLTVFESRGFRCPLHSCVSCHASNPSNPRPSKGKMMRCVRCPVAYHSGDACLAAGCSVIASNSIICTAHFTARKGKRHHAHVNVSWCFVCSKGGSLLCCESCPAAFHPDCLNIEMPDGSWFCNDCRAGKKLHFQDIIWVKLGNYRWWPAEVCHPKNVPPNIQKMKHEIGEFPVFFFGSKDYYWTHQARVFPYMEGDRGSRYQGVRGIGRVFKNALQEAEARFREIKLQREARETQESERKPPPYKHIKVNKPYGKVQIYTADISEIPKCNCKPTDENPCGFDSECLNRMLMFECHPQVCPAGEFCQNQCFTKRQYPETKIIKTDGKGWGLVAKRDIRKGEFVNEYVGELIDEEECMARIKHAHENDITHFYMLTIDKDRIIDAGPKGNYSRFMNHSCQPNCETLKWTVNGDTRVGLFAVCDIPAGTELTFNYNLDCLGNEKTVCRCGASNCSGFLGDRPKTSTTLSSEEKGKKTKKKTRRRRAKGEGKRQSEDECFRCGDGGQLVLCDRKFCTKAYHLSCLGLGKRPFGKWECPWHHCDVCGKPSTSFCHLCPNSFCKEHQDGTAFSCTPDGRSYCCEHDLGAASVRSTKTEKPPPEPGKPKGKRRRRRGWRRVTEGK
# [15] = biological target: Tyrosyl-DNA phosphodiesterase 2 (Homo sapiens, UniProt O95551); assay: human TDP2 enzyme inhibitors, dose response, biochemical, epi absorbance, IC50 (AID 743297)
# [16] = biological target: 1-phosphatidylinositol 4,5-bisphosphate phosphodiesterase gamma-1 (Homo sapiens, UniProt P19174); assay: Counterscreen for inhibitors of phospholipase C isozymes (PLC-B3): Fluorescence-based biochemical high throughput dose response assay to identify inhibitors of phospholipase C isozymes (PLC-gamma1).
# [17] = non-specific cell cytotoxicity, dose response, cytotoxicity control for PAX8 inhibitor project, plate reader, dry powder samples (AID 743021); assay type: functional, cell-based
# [18] = biological target: 1-phosphatidylinositol 4,5-bisphosphate phosphodiesterase beta-3 (Homo sapiens, UniProt Q01970); assay: Fluorescence-based biochemical high throughput dose response assay to identify inhibitors of phospholipase C isozymes (PLC-B3).
# [19] = biological target: T1, NAD-dependent protein deacylase sirtuin-5, mitochondrial; assay: SIRT5 deacylase inhibitors, dose response, biochemical, fluorescence imaging, cherry-pick, set 6 (AID 720597)
# [20] = Late stage counterscreen for inhibitors of Trypanosoma brucei methionyl tRNA synthetase (MetRS): Luminescence-based cell-based high throughput dose response assay to identify compounds that are cytotoxic to Jurkat human T lymphocyte cells.; assay type: functional
# [21] = biological target: Kallikrein-7 (Homo sapiens, UniProt P49862); assay: Fluorescence Intensity-based biochemical primary high throughput dose response assay to identify activators of kallikrein-7 (K7) zymogen.
# [22] = Shn3 3'UTR reporter inhibitors, dose response, cell-based, Clone20 osteoblasts, firefly luciferase, cherry-picked (AID 624132); assay type: functional;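 further: firefly luciferase luminescence from reporter carrying the Shn3 3'UTR in osteoblasts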
# [23] = reduction of Shn3 3'UTR firefly luciferase signal, dose response, Schnurri-3 inhibitor project, cell-based, Clone20 osteoblasts, cherry-pick, set 2 (AID 720490); assay type: functional;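 further: actives lower the luminescence signal as inhibitors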
# [24] = Artemis endonuclease inhibitor potency, dose response, biochemical, fluorescence intensity (AID 720701); assay type: functional;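 further: Artemis endonuclease enzyme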
# [25] = inhibitors of PGC1a acetylation in cells, dose response, cell-based, cherry-picked samples (AID 720514); assay type: functional;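 further: potency may reflect raised or lowered acetylation signal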
# [26] = HepG2 cell cytotoxicity, dose response, cytotoxicity control, luminescence plate reader, powder samples, set 2 (AID 651860); assay type: functional, cell-based
# T1 sequence (Q9NXA8 whole entry): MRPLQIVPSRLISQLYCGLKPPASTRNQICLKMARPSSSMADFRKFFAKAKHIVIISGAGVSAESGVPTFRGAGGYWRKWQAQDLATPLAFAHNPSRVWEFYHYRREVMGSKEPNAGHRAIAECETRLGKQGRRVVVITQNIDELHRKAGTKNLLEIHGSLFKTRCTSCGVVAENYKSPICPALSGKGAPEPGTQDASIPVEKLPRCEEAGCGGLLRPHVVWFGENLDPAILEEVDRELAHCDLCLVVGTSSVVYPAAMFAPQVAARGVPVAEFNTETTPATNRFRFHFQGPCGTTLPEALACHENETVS
# Chain of Paired box protein Pax-8 (Q06710 whole entry): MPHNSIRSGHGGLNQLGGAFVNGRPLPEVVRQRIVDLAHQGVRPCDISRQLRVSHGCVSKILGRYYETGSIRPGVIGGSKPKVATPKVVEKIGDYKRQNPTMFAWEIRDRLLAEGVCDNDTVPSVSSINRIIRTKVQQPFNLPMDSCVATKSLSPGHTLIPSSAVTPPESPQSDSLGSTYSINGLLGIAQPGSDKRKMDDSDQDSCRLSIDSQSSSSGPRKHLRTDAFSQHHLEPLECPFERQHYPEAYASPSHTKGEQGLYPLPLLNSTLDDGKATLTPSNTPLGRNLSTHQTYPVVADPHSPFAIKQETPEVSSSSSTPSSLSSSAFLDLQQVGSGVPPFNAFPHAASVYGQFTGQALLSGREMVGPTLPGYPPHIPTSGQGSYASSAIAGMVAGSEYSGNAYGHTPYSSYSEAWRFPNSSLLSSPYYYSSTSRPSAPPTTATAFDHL
# Chain of Tyrosyl-DNA phosphodiesterase 2 (O95551 whole entry): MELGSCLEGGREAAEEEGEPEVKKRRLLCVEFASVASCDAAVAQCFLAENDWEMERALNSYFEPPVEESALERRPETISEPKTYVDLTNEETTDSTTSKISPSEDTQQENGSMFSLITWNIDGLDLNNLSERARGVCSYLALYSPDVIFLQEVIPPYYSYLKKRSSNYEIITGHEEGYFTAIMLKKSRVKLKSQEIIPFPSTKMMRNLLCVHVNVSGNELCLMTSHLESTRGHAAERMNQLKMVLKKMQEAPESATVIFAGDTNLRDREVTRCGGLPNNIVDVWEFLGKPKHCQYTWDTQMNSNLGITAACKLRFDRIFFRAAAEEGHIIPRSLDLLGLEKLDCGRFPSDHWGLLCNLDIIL
# Chain of Kallikrein-7 (P49862 whole entry): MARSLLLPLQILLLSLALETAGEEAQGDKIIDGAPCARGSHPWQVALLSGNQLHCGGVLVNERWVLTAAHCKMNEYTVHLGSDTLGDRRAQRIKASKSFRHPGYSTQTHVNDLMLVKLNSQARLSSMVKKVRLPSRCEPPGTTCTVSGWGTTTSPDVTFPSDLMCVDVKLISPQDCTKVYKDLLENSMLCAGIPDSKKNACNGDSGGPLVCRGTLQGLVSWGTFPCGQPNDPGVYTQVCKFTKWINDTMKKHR
# Chain of 1-phosphatidylinositol 4,5-bisphosphate phosphodiesterase beta-3 (Q01970 whole entry): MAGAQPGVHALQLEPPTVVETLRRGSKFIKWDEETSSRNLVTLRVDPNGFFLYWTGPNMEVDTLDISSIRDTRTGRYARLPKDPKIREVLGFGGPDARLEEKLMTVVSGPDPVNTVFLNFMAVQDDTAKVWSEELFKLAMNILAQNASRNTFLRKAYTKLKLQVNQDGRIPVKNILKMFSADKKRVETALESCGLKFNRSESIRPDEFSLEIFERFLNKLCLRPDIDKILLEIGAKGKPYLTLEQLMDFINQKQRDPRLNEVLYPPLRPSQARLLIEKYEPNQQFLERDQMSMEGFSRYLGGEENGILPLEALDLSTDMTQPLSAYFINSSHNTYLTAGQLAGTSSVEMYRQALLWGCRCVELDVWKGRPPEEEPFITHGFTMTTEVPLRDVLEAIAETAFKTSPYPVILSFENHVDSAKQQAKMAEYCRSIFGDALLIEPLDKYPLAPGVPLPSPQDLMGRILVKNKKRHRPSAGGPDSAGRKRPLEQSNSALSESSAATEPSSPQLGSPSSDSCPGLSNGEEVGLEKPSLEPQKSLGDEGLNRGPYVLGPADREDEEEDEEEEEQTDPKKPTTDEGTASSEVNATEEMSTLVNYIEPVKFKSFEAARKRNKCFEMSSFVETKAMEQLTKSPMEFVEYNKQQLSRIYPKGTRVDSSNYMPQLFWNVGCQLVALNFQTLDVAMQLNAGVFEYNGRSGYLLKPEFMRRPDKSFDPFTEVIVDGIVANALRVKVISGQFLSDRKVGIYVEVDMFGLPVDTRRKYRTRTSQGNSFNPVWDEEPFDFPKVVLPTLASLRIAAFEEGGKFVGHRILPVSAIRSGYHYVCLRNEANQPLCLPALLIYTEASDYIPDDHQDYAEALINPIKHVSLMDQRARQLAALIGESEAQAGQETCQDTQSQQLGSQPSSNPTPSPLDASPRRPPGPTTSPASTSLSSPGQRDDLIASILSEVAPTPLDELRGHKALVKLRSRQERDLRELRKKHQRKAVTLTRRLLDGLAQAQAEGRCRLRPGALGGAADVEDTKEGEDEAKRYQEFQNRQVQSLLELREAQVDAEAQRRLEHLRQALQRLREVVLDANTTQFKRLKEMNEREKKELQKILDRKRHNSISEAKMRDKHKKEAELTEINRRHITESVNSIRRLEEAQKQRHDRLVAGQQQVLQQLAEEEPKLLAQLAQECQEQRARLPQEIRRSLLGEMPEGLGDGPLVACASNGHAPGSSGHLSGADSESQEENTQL
# Chain of Vasopressin V2 receptor (P30518 whole entry): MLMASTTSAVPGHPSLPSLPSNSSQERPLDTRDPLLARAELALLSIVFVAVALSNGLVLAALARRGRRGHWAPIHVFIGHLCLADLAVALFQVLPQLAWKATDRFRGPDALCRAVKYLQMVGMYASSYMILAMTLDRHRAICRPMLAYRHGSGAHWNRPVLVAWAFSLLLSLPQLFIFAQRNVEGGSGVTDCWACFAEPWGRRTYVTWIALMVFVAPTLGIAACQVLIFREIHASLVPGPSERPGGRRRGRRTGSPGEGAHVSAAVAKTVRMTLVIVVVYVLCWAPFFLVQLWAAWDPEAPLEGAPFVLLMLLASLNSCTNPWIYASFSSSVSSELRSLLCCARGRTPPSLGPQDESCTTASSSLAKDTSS
# Chain of Vasopressin V1b receptor (P47901 whole entry): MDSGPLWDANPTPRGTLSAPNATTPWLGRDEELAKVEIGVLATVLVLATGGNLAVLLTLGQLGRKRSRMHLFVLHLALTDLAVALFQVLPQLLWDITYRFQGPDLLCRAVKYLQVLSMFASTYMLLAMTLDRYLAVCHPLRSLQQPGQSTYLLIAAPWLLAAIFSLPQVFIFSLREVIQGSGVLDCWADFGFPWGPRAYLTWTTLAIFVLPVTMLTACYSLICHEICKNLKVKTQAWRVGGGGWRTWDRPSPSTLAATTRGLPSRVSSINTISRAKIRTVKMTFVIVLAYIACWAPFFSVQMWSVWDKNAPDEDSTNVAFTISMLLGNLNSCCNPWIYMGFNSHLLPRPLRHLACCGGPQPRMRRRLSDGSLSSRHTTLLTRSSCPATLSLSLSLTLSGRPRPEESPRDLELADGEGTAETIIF
# Chain of 1-phosphatidylinositol 4,5-bisphosphate phosphodiesterase gamma-1 (P19174 whole entry): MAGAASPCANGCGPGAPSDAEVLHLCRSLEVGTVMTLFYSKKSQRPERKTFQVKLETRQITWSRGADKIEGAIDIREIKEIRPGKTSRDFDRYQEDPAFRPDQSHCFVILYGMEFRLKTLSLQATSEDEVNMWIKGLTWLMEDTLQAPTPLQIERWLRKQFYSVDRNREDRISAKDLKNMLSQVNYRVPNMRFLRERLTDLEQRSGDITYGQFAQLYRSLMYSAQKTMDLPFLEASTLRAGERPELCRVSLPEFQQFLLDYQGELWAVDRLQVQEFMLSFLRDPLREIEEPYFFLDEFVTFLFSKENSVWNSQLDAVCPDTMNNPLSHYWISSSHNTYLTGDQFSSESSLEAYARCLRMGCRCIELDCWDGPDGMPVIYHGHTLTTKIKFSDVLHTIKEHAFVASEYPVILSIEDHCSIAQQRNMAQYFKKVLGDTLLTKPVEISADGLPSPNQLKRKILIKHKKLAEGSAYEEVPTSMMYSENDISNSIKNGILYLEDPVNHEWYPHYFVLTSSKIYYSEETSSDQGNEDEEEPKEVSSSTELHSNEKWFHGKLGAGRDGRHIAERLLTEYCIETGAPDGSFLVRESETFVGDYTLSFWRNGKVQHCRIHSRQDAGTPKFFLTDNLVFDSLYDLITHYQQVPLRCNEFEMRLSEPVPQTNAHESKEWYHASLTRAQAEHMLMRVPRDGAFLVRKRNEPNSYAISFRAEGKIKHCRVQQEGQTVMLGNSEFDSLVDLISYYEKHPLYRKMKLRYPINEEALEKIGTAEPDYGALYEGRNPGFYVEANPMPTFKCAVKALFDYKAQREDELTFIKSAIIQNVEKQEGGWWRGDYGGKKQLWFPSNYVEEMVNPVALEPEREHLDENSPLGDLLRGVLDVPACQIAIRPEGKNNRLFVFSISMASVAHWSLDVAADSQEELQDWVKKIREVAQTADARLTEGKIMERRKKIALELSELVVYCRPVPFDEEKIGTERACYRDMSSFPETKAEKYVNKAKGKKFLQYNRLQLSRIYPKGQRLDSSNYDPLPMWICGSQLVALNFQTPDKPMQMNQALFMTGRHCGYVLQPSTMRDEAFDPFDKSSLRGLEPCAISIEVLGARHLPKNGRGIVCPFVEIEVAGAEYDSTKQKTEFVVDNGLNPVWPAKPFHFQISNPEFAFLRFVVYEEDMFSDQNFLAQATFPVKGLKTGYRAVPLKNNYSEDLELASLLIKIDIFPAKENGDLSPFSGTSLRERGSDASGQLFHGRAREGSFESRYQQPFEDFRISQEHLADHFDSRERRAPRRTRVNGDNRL
smiles,measurement,setting,value
COc1ccc(CN2C(=O)C(CC(=O)NCCc3ccccn3)CC(C(=O)N3CCOCC3)=C2C)cc1 (stereo unspecified),AC50,[1],> 30 µM (inactive)
O=C1C(NS(=O)(=O)c2cccs2)=C(N2CCCCC2)C(=O)c2ccccc21,AC50,[2],> 70 µM (inactive)
same,AC50,[3],> 70 µM (inactive)
Cc1ccc(N(CC2CC2)C(=O)N2CCN(c3ccccc3C)CC2)cc1,IC50,[4],0.0069 µM (active)
same,IC50,[5],17.6 µM (inactive)
same,IC50,[6],2.22 µM (active)
same,IC50,[7],0.082 µM (active)
CC(C)N(C)C(=O)c1cccc(NC(=O)c2ccncc2)c1OCCCN(C)Cc1ccc(Oc2ccccc2)cc1,AC50,[8],0.381 µM (active)
same,AC50,[9],0.386 µM (active)
same,IC50,[10],10.1 µM (inconclusive)
NC1=C(Cl)C(=O)c2ccc(S(N)(=O)=O)cc2C1=O,EC50,[11],> 80 µM (inactive)
same,EC50,[12],1.06 µM (active)
same,AC50,[13],1.47 µM (active)
same,AC50,[14],0.144 µM (active)
same,IC50,[15],1.07 µM (active)
same,IC50,[16],> 122 µM (inactive)
same,AC50,[17],8.31 µM (active)
same,IC50,[18],> 122 µM (inactive)
C[C@@H]1CN([C@H](C)CO)C(=O)CCCn2nncc2CO[C@H]1CN(C)S(=O)(=O)c1ccc(Cl)cc1,AC50,[19],26.7 µM (active)
CC(CC(=O)Nc1cccc(Br)c1)=NNC(=O)c1ccc(O)cc1O,IC50,[20],> 83.3 µM (inactive)
CC(=O)Nc1ccc2[nH]c(-c3cccs3)nc2c1,EC50,[21],8.78 µM (active)
CC(Oc1ccc(F)cc1)C(=O)N(CCC1=CCCCC1)c1c(N)n(Cc2ccccc2)c(=O)[nH]c1=O (stereo unspecified),AC50,[22],7.99 µM (active)
same,AC50,[23],22.6 µM (active)
Cc1ccc(CNC(=O)c2cc3c(=O)n4ccccc4nc3n(Cc3ccco3)c2=N)cc1,IC50,[24],17.3 µM (active)
CC(C)NC(=O)Nc1ccc2c(c1)C(=O)N([C@@H](C)CO)C[C@H](C)[C@@H](CN(C)C(=O)CCC(F)(F)F)OCCCC[C@@H](C)O2,AC50,[25],38 µM (active)
NC(=O)[C@H]1CCCC[C@H]1C(=O)N1CCc2ccccc2[C@H]1CN1C(=O)c2ccccc2C1=O,AC50,[26],> 52 µM (inactive)
